Reference: BindingDB's records for doi:10.7270/Q2NZ862K (Nmmlsc, 2007)

Target: T1, fMet-Leu-Phe receptor (Homo sapiens, UniProt P21462)
T1 sequence (P21462 whole entry): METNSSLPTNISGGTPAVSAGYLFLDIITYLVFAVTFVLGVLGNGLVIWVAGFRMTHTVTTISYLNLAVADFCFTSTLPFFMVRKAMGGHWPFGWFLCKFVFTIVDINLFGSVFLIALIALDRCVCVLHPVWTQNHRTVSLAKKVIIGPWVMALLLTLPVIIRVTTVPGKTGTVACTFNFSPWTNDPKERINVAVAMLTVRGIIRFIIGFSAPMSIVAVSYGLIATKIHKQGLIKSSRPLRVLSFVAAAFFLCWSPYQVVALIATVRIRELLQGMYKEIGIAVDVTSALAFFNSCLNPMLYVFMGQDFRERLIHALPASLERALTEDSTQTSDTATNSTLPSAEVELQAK
Assay: FPR ligands, dose response (AID 519)

| SMILES | Ki [µM] |
| --- | --- |
| CC1=NC(C)=C(C#N)C(c2ccc3ncccc3c2)C1C#N (stereo not given) | > 43.7 |
| COc1cccc2cc(C(=O)C3C(=O)C(=O)N(Cc4ccco4)C3c3cccnc3)oc12 (stereo not given) [1-(2-furanylmethyl)-4-hydroxy-3-[(7-methoxy-2-benzofuranyl)-oxomethyl]-2-(3-pyridinyl)-2H-pyrrol-5-one] | > 43.7 |
| O=C1C(=O)N(Cc2ccco2)C(c2ccccc2)C1C(=O)c1cccs1 (stereo not given) [1-(2-furanylmethyl)-4-hydroxy-3-[oxo(thiophen-2-yl)methyl]-2-phenyl-2H-pyrrol-5-one] | 23 |
| COCCN1C(=O)C(=O)C(C(=O)c2cccs2)C1c1ccccc1 (stereo not given) [1-(2-methoxyethyl)-4-oxidanyl-2-phenyl-3-thiophen-2-ylcarbonyl-2H-pyrrol-5-one] | > 43.7 |
| O=C1C(=O)N(CCN2CCOCC2)C(c2ccccc2)C1C(=O)c1cccs1 (stereo not given) [1-(2-morpholin-4-ylethyl)-4-oxidanyl-2-phenyl-3-thiophen-2-ylcarbonyl-2H-pyrrol-5-one] | > 43.7 |
| Cc1ccc(C(=O)C2C(=O)C(=O)N(CCCn3ccnc3)C2c2ccc(OC(C)C)cc2)o1 (stereo not given) [1-(3-imidazol-1-ylpropyl)-3-(5-methylfuran-2-yl)carbonyl-4-oxidanyl-2-(4-propan-2-yloxyphenyl)-2H-pyrrol-5-one] | > 43.7 |
| C=CCOc1ccc(C2C(C(=O)c3cccs3)C(=O)C(=O)N2c2nnc(C)s2)cc1 (stereo not given) [1-(5-methyl-1,3,4-thiadiazol-2-yl)-4-oxidanyl-2-(4-prop-2-enoxyphenyl)-3-thiophen-2-ylcarbonyl-2H-pyrrol-5-one] | 26.5 |
| Cc1ccc(C(=O)C2C(=O)C(=O)N(Cc3ccccc3)C2c2cccnc2)o1 (stereo not given) [1-benzyl-3-hydroxy-4-[(5-methylfuran-2-yl)carbonyl]-5-(pyridin-3-yl)-2,5-dihydro-1H-pyrrol-2-one] | > 43.7 |
| COc1ccc(OC)c(C2C(C(=O)c3cccs3)C(=O)C(=O)N2c2cc(C)on2)c1 (stereo not given) [2-(2,5-dimethoxyphenyl)-1-(5-methyl-1,2-oxazol-3-yl)-4-oxidanyl-3-thiophen-2-ylcarbonyl-2H-pyrrol-5-one] | > 43.7 |
| O=C1C(=O)N(c2ncccn2)C(c2ccc(Cl)c(Cl)c2)C1C(=O)c1ccco1 (stereo not given) [2-(3,4-dichlorophenyl)-3-(furan-2-carbonyl)-4-hydroxy-1-pyrimidin-2-yl-2H-pyrrol-5-one] | > 43.7 |
| COc1ccc(C2C(C(=O)c3cccs3)C(=O)C(=O)N2c2nnc(C)s2)cc1OC (stereo not given) [2-(3,4-dimethoxyphenyl)-1-(5-methyl-1,3,4-thiadiazol-2-yl)-4-oxidanyl-3-thiophen-2-ylcarbonyl-2H-pyrrol-5-one] | > 43.7 |
| COc1ccc(C2C(C(=O)c3ccco3)C(=O)C(=O)N2CCc2ccccc2)cc1OC (stereo not given) [2-(3,4-dimethoxyphenyl)-3-(furan-2-carbonyl)-4-hydroxy-1-(2-phenylethyl)-2H-pyrrol-5-one] | 24.1 |
| COc1ccc(C2C(C(=O)c3ccco3)C(=O)C(=O)N2Cc2cccnc2)cc1OC (stereo not given) [2-(3,4-dimethoxyphenyl)-3-(furan-2-carbonyl)-4-hydroxy-1-(pyridin-3-ylmethyl)-2H-pyrrol-5-one] | > 43.7 |
| COc1cc(C2C(C(=O)c3ccco3)C(=O)C(=O)N2c2cc(C)on2)cc(Br)c1O (stereo not given) [2-(3-bromanyl-5-methoxy-4-oxidanyl-phenyl)-3-(furan-2-ylcarbonyl)-1-(5-methyl-1,2-oxazol-3-yl)-4-oxidanyl-2H-pyrrol-5-one] | 31.2 |
| COCCCN1C(=O)C(=O)C(C(=O)c2ccco2)C1c1cccc(Br)c1 (stereo not given) [2-(3-bromophenyl)-3-(furan-2-carbonyl)-4-hydroxy-1-(3-methoxypropyl)-2H-pyrrol-5-one] | 20.4 |
| O=C1C(=O)N(c2ncccn2)C(c2cccc(Cl)c2)C1C(=O)c1ccco1 (stereo not given) [2-(3-chlorophenyl)-3-(furan-2-carbonyl)-4-hydroxy-1-pyrimidin-2-yl-2H-pyrrol-5-one] | > 43.7 |
| CCOc1cc(C2C(C(=O)c3ccco3)C(=O)C(=O)N2CCc2ccccc2)ccc1O (stereo not given) [2-(3-ethoxy-4-hydroxyphenyl)-3-(furan-2-carbonyl)-4-hydroxy-1-(2-phenylethyl)-2H-pyrrol-5-one] | > 43.7 |
| COc1cc(C2C(C(=O)c3ccc(C)o3)C(=O)C(=O)N2Cc2cccnc2)ccc1O (stereo not given) [2-(3-methoxy-4-oxidanyl-phenyl)-3-(5-methylfuran-2-yl)carbonyl-4-oxidanyl-1-(pyridin-3-ylmethyl)-2H-pyrrol-5-one] | > 43.7 |
| Cc1nc(C)c(C(=O)C2C(=O)C(=O)N(CCCn3ccnc3)C2c2ccc(Cl)cc2)s1 (stereo not given) [2-(4-chlorophenyl)-3-(2,4-dimethyl-1,3-thiazole-5-carbonyl)-4-hydroxy-1-(3-imidazol-1-ylpropyl)-2H-pyrrol-5-one] | > 43.7 |
| O=C1C(=O)N(c2ncccn2)C(c2ccc(Cl)cc2)C1C(=O)c1ccco1 (stereo not given) [2-(4-chlorophenyl)-3-(furan-2-carbonyl)-4-hydroxy-1-pyrimidin-2-yl-2H-pyrrol-5-one] | > 43.7 |
| CCOc1ccc(C2C(C(=O)c3cccs3)C(=O)C(=O)N2CCCn2ccnc2)cc1 (stereo not given) [2-(4-ethoxyphenyl)-1-(3-imidazol-1-ylpropyl)-4-oxidanyl-3-thiophen-2-ylcarbonyl-2H-pyrrol-5-one] | 37.4 |
| COC(=O)Cc1n[nH]c2c1C(C1C=CCCC1)C(C#N)C(=N)O2 (stereo not given) [2-[6-amino-5-cyano-4-(1-cyclohex-2-enyl)-2,4-dihydropyrano[2,3-c]pyrazol-3-yl]acetic acid methyl ester] | > 43.7 |
| COc1cccc(C2C(C(=O)c3cc4ccccc4o3)C(=O)C(=O)N2c2cc(C)on2)c1OC (stereo not given) [3-(1-benzofuran-2-carbonyl)-2-(2,3-dimethoxyphenyl)-4-hydroxy-1-(5-methyl-1,2-oxazol-3-yl)-2H-pyrrol-5-one] | > 43.7 |
| COc1ccc(OC)c(C2C(C(=O)c3cc4ccccc4o3)C(=O)C(=O)N2c2cc(C)on2)c1 (stereo not given) [3-(1-benzofuran-2-carbonyl)-2-(2,5-dimethoxyphenyl)-4-hydroxy-1-(5-methyl-1,2-oxazol-3-yl)-2H-pyrrol-5-one] | 23.9 |
| O=C1C(=O)N(CCCN2CCOCC2)C(c2ccccn2)C1C(=O)c1cc2ccccc2o1 (stereo not given) [3-(1-benzofuran-2-carbonyl)-4-hydroxy-1-(3-morpholin-4-ylpropyl)-2-pyridin-2-yl-2H-pyrrol-5-one] | 39.7 |

More lines, in order of falling Ki, values ahead:

| Ki [µM] | SMILES |
| --- | --- |
| 20 | O=C1C(=O)N(Cc2ccccc2)C(c2cccnc2)C1C(=O)c1ccco1 (stereo not given) [1-Benzyl-4-(furan-2-carbonyl)-3-hydroxy-5-pyridin-3-yl-1,5-dihydro-pyrrol-2-one] |
| 19.9 | CCOc1cc(C2C(C(=O)c3ccc(C)o3)C(=O)C(=O)N2CCc2ccccc2)ccc1O (stereo not given) [2-(3-ethoxy-4-hydroxyphenyl)-4-hydroxy-3-(5-methylfuran-2-carbonyl)-1-(2-phenylethyl)-2H-pyrrol-5-one] |
| 17.7 | COc1cc(C2C(C(=O)c3cccs3)C(=O)C(=O)N2Cc2ccco2)cc(OC)c1OC (stereo not given) [1-(2-furanylmethyl)-4-hydroxy-3-[oxo(thiophen-2-yl)methyl]-2-(3,4,5-trimethoxyphenyl)-2H-pyrrol-5-one] |
| 17.3 | COc1ccc(OC)c(C2C(C(=O)c3ccco3)C(=O)C(=O)N2CCCN2CCOCC2)c1 (stereo not given) [2-(2,5-dimethoxyphenyl)-3-(furan-2-carbonyl)-4-hydroxy-1-(3-morpholin-4-ylpropyl)-2H-pyrrol-5-one] |
| 14 | O=C1C(=O)N(CCOCCO)C(c2cccs2)C1C(=O)c1cccs1 (stereo not given) [1-[2-(2-hydroxyethyloxy)ethyl]-4-oxidanyl-2-thiophen-2-yl-3-thiophen-2-ylcarbonyl-2H-pyrrol-5-one] |
| 12.9 | COc1cc(C2C(C(=O)c3ccc(C)o3)C(=O)C(=O)N2CCc2ccccc2)ccc1O (stereo not given) [2-(3-methoxy-4-oxidanyl-phenyl)-3-(5-methylfuran-2-yl)carbonyl-4-oxidanyl-1-(2-phenylethyl)-2H-pyrrol-5-one] |
| 12.4 | COc1ccc(CCN2C(=O)C(=O)C(C(=O)c3ccco3)C2c2cccs2)cc1OC (stereo not given) [1-[2-(3,4-Dimethoxy-phenyl)-ethyl]-4-(furan-2-carbonyl)-3-hydroxy-5-thiophen-2-yl-1,5-dihydro-pyrrol-2-one] |
| 10 | CCOc1ccc(C2C(C(=O)c3ccco3)C(=O)C(=O)N2Cc2cccnc2)cc1 (stereo not given) [2-(4-ethoxyphenyl)-3-(furan-2-carbonyl)-4-hydroxy-1-(pyridin-3-ylmethyl)-2H-pyrrol-5-one] |
| 9.6 | COCCCN1C(=O)C(=O)C(C(=O)c2ccco2)C1c1ccc(Br)cc1 (stereo not given) [2-(4-bromophenyl)-3-(furan-2-carbonyl)-4-hydroxy-1-(3-methoxypropyl)-2H-pyrrol-5-one] |
| 9 | CCCOc1ccc(C2C(C(=O)c3ccc(C)o3)C(=O)C(=O)N2CCCn2ccnc2)cc1 (stereo not given) [1-(3-imidazol-1-ylpropyl)-3-(5-methylfuran-2-yl)carbonyl-4-oxidanyl-2-(4-propoxyphenyl)-2H-pyrrol-5-one] |
| 8.9 | O=C1C(=O)N(Cc2ccccc2)C(c2ccncc2)C1C(=O)c1ccco1 (stereo not given) [1-Benzyl-4-(furan-2-carbonyl)-3-hydroxy-5-pyridin-4-yl-1,5-dihydro-pyrrol-2-one] |
| 8.1 | O=C1C(=O)N(Cc2ccccc2)C(c2ccco2)C1C(=O)c1ccco1 (stereo not given) [1-Benzyl-4-(furan-2-carbonyl)-5-furan-2-yl-3-hydroxy-1,5-dihydro-pyrrol-2-one] |
| 6.4 | CCOc1ccc(C2C(C(=O)c3ccco3)C(=O)C(=O)N2CCCn2ccnc2)cc1 (stereo not given) [2-(4-ethoxyphenyl)-3-(furan-2-carbonyl)-4-hydroxy-1-(3-imidazol-1-ylpropyl)-2H-pyrrol-5-one] |
| 3.5 | CCCCc1c(O)n(-c2ccccc2)n(-c2ccccc2)c1=O [3,5-Dioxo-1,2-diphenyl-4-n-butylpyrazolidine] |
| 3.3 | COC(=O)c1[nH]c(C)c(C(=O)C2C(=O)C(=O)N(CCN3CCOCC3)C2c2cccs2)c1C (stereo not given) |
